Measurements as given in US20050171038A1, “Therapeutic combinations” (Agouron Pharmaceuticals, Inc., priority 2004, published 2005).

Key:
CEM-SS cells = assay: Cytotoxicity of the combinations in the XTT dye reduction assay (mock infected CEM-SS cells)
Experimental: CEM-SS cells were added at 2×10^4 cells per well into 96-well plates containing 1.5-fold or 2.0-fold dilutions of test compounds, and were subsequently infected with HIV-1 RF at a multiplicity of infection of 0.470 or mock infected with medium only. Six days after infection, 50 μl of XTT (1 mg/ml XTT tetrazolium, […] phenazine methosulfate) were added to the wells and the plate was reincubated for four hours. Viability, as determined by the amount of XTT formazan produced, was quantified spectrophotometrically by absorbance at 450 nm. Optical density values were exported to a MacSynergy™ II (3, University of Michigan, Ann Arbor, Mich.) spreadsheet for subsequent analysis.

HIV-1 RF = assay: XTT dye reduction combination assay: protection of CEM-SS cells against HIV-1 RF infection, MacSynergy II analysis; format: cell-based; settings: 95% confidence interval
[1] = in combination with 4,4-difluoro-1-{(2S,3S)-2-hydroxy-3-[(3-hydroxy-2-methylbenzoyl)amino]-4-phenylbutanoyl}-3,3-dimethyl-N-(2,2,2-trifluoroethyl)-L-prolinamide
[2] = in combination with 4,4-difluoro-1-{(2S,3S)-2-hydroxy-3-[(3-hydroxy-2-methylbenzoyl)amino]-4-phenylbutanoyl}-3,3-dimethyl-N-(2,2,2-trifluoroethyl)-L-prolinamide, six days after infection of CEM-SS cells with HIV-1 RF, triplicate plates
[3] = in combination with N-ethyl-4,4-difluoro-1-{(2S,3S)-2-hydroxy-3-[(3-hydroxy-2,5-dimethylbenzoyl)amino]-4-phenylbutanoyl}-3,3-dimethyl-L-prolinamide
[4] = in combination with (4R)-N-allyl-3-{(2S,3S)-2-hydroxy-3-[(3-hydroxy-2-methylbenzoyl)amino]-4-phenylbutanoyl}-5,5-dimethyl-1,3-thiazolidine-4-carboxamide, mean of two or three independent experiments
[5] = in combination with N-ethyl-4,4-difluoro-1-{(2S,3S)-2-hydroxy-3-[(3-hydroxy-2,5-dimethylbenzoyl)amino]-4-phenylbutanoyl}-3,3-dimethyl-L-prolinamide, six days after infection of CEM-SS cells with HIV-1 RF, triplicate plates

Cc1cccc(C)c1OCC(=O)N[C@@H](Cc1ccccc1)[C@@H](O)C[C@H](Cc1ccccc1)NC(=O)[C@H](C(C)C)N1CCCNC1=O (relative stereo) [Lopinavir, [1S-[1R*,(R*),3R*,4R*]]—N-[4-[[(2,6-dimethyl-phenoxy)acetyl]amino]-3-hydroxy-5-phenyl-1-(phenylmethyl)pentyl]tetrahydro-alpha-(1-methylethyl)-2-oxo-1(2H)-pyrimidineacetamide]
Cytotoxicity (CEM-SS cells; [1]): none | Antagonism (volume) (HIV-1 RF; [2]): 0 μM^2% | Synergy (volume) (HIV-1 RF; [2]): 261 μM^2%

Cc1c(O)cccc1C(=O)N[C@@H](CSc1ccccc1)[C@H](O)CN1C[C@H]2CCCC[C@H]2C[C@H]1C(=O)NC(C)(C)C (relative stereo) [Nelfinavir, [3S-[2(2S*, 3S*),3-alpha,4abeta,8abeta]]-N-(1,1-dimethylethyl)decahydro-2-[2-hydroxy-3-[(3-hydroxy-2-methylbenzoyl)amino]-4-(phenylthio)butyl]-3-isoquinolinecarboxamide mono-methanesulfonate]
Cytotoxicity (CEM-SS cells; [1]): none | Cytotoxicity (CEM-SS cells; [3]): none | Antagonism (volume) (HIV-1 RF; [2]): −0.28 μM^2% | Synergy (volume) (HIV-1 RF; [2]): 653 μM^2% | Antagonism (volume) (HIV-1 RF; [4]): −13 μM^2% | Synergy (volume) (HIV-1 RF; [4]): 197 μM^2% | Antagonism (volume) (HIV-1 RF; [5]): 0 μM^2% | Synergy (volume) (HIV-1 RF; [5]): 229 μM^2%

CC(C)c1nc(CN(C)C(=O)N[C@H](C(=O)N[C@@H](Cc2ccccc2)C[C@H](O)[C@H](Cc2ccccc2)NC(=O)OCc2cncs2)C(C)C)cs1 (relative stereo) [Ritonavir, 10-hydroxy-2-methyl-5-(1-methylethyl)-1-[2-(1-methylethyl)-4-thiazolyl]-3,6-dioxo-8,11-bis(phenylmethyl)-2,4,7,12-tetraazatridecan-13-oic acid, 5-thiazolylmethyl ester, [5S-(5R*,8R*,10R*,11R*)]]
Antagonism (volume) (HIV-1 RF; [4]): −0.77 μM^2% | Synergy (volume) (HIV-1 RF; [4]): 407 μM^2%

O=C1Nc2ccc(Cl)cc2[C@@](C#CC2CC2)(C(F)(F)F)O1 [Efavirenz, (S)-6-chloro-4-(cyclopropylethynyl)-1,4-dihydro-4-(trifluoromethyl)-2H-3,1-benzoxazin-2-one]
Cytotoxicity (CEM-SS cells; [3]): none | Antagonism (volume) (HIV-1 RF; [4]): −1.1 μM^2% | Synergy (volume) (HIV-1 RF; [4]): 130 μM^2% | Antagonism (volume) (HIV-1 RF; [5]): 0 μM^2% | Synergy (volume) (HIV-1 RF; [5]): 78 μM^2%

Cc1ccnc2c1NC(=O)c1cccnc1N2C1CC1 [Nevirapine, 11-cyclopropyl-5,11-dihydro-4-methyl-6H-dipyrido[3,2-b:2′,3′-e][1,4]diazepin-6-one]
Cytotoxicity (CEM-SS cells; [1]): none | Cytotoxicity (CEM-SS cells; [3]): insignificant | Antagonism (volume) (HIV-1 RF; [2]): 0 μM^2% | Synergy (volume) (HIV-1 RF; [2]): 270 μM^2% | Antagonism (volume) (HIV-1 RF; [4]): 0 μM^2% | Synergy (volume) (HIV-1 RF; [4]): 203 μM^2% | Antagonism (volume) (HIV-1 RF; [5]): −2.4 μM^2% | Synergy (volume) (HIV-1 RF; [5]): 153 μM^2%

CC(C)OC(=O)OCOP(=O)(CO[C@H](C)Cn1cnc2c(N)ncnc21)OCOC(=O)OC(C)C.O=C(O)/C=C/C(=O)O [Tenofovir, 9-[(R)-2-[[bis[[(isopropoxycarbonyl)oxy]methoxy]phosphinyl]methoxy]propyl]adenine fumarate (1:1)]
Cytotoxicity (CEM-SS cells; [1]): none | Cytotoxicity (CEM-SS cells; [3]): insignificant | Antagonism (volume) (HIV-1 RF; [2]): −6.0 μM^2% | Synergy (volume) (HIV-1 RF; [2]): 106 μM^2% | Antagonism (volume) (HIV-1 RF; [4]): 0 μM^2% | Synergy (volume) (HIV-1 RF; [4]): 125 μM^2% | Antagonism (volume) (HIV-1 RF; [5]): 0 μM^2% | Synergy (volume) (HIV-1 RF; [5]): 14 μM^2%

Cc1cn([C@H]2C[C@H](N=[N+]=[N-])[C@@H](CO)O2)c(=O)[nH]c1=O [Zidovudine, 3′-azido-3′-deoxythymidine]
Antagonism (volume) (HIV-1 RF; [2]): 0 μM^2% | Synergy (volume) (HIV-1 RF; [2]): 107 μM^2% | Antagonism (volume) (HIV-1 RF; [4]): −0.88 μM^2% | Synergy (volume) (HIV-1 RF; [4]): 180 μM^2%
